Results: US20140315991A1, “COMPOSITION FOR TREATMENT OF EPITHELIAL TISSUE” (NOVODERMIX INTERNATIONAL LIMITED, priority 2008, published 2014)

System: mature atrophic post-Acne facial scarring
Assay: randomized, triple-blind study in mature atrophic post-Acne facial scarring (Example 7)
Type: in vivo, human
Set-up: transient reduction in vision (adverse event, one patient): unit not given here
Method: A randomized, triple-blind study was conducted on 35 patients in two sites in India (Amritsar and Faridkot). Ethnic skin patients (Fitzpatrick 4-5) with mature atrophic post-Acne facial scarring (scar age >2 years) were randomly assigned to one of four study arms: topical Topiramate 5.0% (n=10), topical Topiramate 2.5% (n=9), oral Topiramate 25 mg (n=8) and topical placebo (n=7). Patients applied the topical formulation once a day on both cheeks for 3 months. Clinical assessment was performed at 6 weeks and 3 months using a visual analog scale (VAS) by the patients and 3 independent observers (2 plastic surgeons and 1 general surgeon) who scored side-by-side cheek photos (before and after treatment).
Thirty five patients completed the study, and a total of 57 cheeks (topical Topiramate 5%—n=18; topical Topiramate 2.5%—n=19; oral Topiramate—n=13; topical Placebo—n=7) were evaluated and scored.

CC1(C)O[C@@H]2[C@@H](CO[C@@]3(COS(N)(=O)=O)OC(C)(C)O[C@@H]23)O1 [Topiramate]
advantage of the study group over the control (topical placebo) (day 42): 95% | improvement (visual analog scale, patients and 3 independent observers) (day 42, once a day): 13.91% | advantage of the study group over the control (topical placebo) (day 90): 102% | improvement (visual analog scale, patients and 3 independent observers) (day 90, once a day): 34.69% | transient reduction in vision (adverse event, one patient) (from 20/20, within 2 days from starting 25 mg oral, returned to 20/20 within 7 days from stopping): −5.00
